Results on 37 compounds are retold here after patent US9012443B2 (Amgen Inc., priority 2011, dated 2015).

Molecules are shown by their SMILES. pIC50: −log10 of the molar value. Like-named read-outs stand apart in the source and are kept apart here. Some results are limits rather than exact numbers.

Assay type in all cases: cell-based
Data set [1] addresses T1, Nav 1.7 (Homo sapiens (Human), UniProt Q15858). The data set can be described thus: Nav 1.7 IWQ in vitro assay (IonWorks Quattro population patch-clamp). The settings on record: 293 cells stably transfected with Nav 1.7. In a few lines:
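HEK293 cells stably expressing Nav 1.7, recorded by automated population patch-clamp with a train of depolarizations producing increasing inactivation. Single compound concentration added during 3–8 min unclamped period, then same protocol repeated. Leak-corrected current at 26th pulse to −20 mV gave percent block (duplicate); IC50 fitted from concentration–block curves.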

For the next data set, the target named is Nav 1.5 (Homo sapiens (Human), UniProt Q14524). The data set can be described thus: Nav 1.5 in vitro PX assay (PatchXpress whole cell voltage clamp). In a few lines:
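HEK293 cells stably expressing Nav 1.5, whole-cell voltage clamp held at −50 mV; 20 msec test pulses to 0 mV at 0.1 Hz, each preceded by a step to −120 mV.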

Data set [2] deals with T1, Nav 1.7. Kind of data set: Nav 1.7 in vitro PX assay (PatchXpress whole cell voltage clamp). The settings on record: 293 cells, human Nav1.7, partially inactivated state; read-out: Nav1.7 PX IC50 IP. A digest of the protocol:
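HEK293 cells stably expressing human Nav1.7, whole-cell voltage clamp on PatchXpress, held at potential giving 20–50% inactivation; current elicited by 20 msec pulse to −10 mV.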

[3] abbreviates: first part of table, read-out: Nav 1.7 IWQ IC50.
Setting [4] is: 293 cells stably transfected with Nav 1.5, first part of table, read-out: Nav 1.5 PX IC50.
The mark [5] stands for this setting: second part of table, read-out: Nav1.7 IWQ IC50 IP.
The mark [6] stands for this setting: 293 cells stably transfected with Nav 1.5, second part of table, read-out: Nav1.5 PX IC50.

As usually defined, the pIC50 is the IC50 on a negative log10 scale, so that one unit is a factor of ten.

Sequence of Nav 1.5 (Q14524 whole entry): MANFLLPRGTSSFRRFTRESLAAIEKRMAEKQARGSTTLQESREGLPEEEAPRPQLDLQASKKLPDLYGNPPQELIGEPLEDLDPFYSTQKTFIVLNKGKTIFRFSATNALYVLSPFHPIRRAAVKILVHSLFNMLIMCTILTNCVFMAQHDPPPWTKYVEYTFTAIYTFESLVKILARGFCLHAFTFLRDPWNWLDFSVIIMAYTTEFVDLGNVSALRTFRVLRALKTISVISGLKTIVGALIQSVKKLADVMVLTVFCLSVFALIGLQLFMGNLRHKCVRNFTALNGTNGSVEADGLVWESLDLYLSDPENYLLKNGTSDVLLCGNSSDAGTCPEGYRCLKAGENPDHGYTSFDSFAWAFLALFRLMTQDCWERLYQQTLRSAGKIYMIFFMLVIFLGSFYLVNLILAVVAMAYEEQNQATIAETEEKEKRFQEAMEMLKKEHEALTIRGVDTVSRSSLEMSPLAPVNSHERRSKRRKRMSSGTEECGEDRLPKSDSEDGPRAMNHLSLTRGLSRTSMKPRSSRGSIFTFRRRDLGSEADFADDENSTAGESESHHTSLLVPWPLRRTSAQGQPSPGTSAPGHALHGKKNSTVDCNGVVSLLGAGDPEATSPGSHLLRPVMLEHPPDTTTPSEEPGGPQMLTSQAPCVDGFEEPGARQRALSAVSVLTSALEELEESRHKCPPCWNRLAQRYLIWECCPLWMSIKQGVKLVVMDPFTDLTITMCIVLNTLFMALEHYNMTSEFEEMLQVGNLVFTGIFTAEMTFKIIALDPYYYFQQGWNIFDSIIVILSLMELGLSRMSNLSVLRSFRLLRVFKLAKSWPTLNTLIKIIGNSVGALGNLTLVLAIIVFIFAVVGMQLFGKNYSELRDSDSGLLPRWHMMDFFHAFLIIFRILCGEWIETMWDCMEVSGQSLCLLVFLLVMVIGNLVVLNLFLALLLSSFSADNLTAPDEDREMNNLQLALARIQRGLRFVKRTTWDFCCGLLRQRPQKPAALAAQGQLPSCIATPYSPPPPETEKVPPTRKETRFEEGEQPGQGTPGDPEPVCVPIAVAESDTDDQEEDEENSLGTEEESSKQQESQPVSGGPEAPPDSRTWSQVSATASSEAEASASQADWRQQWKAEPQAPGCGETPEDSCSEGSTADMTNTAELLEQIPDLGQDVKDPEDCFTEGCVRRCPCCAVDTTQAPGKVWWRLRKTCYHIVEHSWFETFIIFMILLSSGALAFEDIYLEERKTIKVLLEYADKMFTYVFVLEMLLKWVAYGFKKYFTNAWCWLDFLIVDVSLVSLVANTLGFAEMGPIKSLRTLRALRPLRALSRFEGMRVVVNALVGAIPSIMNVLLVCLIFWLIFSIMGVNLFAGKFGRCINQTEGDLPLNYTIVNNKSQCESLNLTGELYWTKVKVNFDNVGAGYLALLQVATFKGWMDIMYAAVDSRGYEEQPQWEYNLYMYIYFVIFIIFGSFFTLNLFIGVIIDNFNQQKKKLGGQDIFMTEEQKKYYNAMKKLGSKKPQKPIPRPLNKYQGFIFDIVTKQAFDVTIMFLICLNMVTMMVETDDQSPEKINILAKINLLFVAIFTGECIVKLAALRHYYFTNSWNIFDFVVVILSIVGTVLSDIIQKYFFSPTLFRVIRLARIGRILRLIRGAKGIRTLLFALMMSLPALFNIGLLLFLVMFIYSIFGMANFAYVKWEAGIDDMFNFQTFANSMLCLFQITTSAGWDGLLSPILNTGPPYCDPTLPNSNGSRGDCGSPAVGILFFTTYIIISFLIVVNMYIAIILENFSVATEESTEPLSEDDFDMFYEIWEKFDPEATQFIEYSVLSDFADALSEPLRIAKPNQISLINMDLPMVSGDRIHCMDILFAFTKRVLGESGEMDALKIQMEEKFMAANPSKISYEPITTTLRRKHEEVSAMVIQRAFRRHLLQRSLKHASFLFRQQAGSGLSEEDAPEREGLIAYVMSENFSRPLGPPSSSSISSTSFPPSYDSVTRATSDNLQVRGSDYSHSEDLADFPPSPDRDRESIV
T1 sequence (Q15858 whole entry): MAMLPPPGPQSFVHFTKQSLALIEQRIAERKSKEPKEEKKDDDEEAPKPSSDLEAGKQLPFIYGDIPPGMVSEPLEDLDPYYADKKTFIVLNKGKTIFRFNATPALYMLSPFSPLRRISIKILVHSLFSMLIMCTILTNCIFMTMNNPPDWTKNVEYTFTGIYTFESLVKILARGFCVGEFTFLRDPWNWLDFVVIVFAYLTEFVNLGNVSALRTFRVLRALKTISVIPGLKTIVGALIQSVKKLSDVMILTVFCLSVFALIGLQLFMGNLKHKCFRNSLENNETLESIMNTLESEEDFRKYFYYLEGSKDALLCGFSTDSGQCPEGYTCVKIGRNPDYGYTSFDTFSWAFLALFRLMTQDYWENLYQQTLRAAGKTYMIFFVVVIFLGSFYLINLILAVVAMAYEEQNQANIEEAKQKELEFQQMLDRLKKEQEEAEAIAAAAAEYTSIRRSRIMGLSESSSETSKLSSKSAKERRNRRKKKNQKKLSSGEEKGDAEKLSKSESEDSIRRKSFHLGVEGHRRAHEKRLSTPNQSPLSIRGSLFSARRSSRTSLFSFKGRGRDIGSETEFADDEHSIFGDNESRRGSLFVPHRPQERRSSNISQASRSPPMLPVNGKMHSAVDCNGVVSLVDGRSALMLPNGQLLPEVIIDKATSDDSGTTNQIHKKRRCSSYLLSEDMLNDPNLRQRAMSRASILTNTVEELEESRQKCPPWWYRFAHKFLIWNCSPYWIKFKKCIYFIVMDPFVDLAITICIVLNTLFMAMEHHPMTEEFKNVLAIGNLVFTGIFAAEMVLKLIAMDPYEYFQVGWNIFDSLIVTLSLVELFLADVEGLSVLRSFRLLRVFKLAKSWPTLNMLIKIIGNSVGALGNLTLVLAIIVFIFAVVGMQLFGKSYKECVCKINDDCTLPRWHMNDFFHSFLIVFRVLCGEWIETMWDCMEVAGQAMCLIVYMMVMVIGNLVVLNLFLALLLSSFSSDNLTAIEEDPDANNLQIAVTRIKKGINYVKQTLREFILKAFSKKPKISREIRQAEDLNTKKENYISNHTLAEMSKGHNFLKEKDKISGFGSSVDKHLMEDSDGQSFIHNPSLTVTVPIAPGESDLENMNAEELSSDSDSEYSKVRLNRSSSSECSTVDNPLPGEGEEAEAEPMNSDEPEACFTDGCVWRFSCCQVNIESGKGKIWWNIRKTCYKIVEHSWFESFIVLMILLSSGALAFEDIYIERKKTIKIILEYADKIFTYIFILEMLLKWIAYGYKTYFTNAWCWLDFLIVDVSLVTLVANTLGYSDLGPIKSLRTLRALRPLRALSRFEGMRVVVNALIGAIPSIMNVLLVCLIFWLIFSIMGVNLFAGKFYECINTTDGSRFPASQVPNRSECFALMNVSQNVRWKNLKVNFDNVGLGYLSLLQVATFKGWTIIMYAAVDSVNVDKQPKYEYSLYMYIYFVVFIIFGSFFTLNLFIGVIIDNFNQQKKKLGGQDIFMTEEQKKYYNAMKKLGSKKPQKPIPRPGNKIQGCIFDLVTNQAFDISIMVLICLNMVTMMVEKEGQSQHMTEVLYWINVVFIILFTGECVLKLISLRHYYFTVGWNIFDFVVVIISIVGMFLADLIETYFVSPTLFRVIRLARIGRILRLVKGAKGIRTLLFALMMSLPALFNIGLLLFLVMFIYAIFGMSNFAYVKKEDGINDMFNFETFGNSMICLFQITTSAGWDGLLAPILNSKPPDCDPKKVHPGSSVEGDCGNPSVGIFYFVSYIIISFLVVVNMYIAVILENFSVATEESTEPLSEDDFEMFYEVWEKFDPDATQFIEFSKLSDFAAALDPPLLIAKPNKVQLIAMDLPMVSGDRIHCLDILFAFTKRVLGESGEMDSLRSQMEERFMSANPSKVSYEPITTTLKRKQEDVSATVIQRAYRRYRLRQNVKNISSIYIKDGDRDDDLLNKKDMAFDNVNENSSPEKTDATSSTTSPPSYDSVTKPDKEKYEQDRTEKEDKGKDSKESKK

For the compound `O=S(=O)(Nc1ncns1)c1ccc2c(N3CCOC(c4ccccc4)C3)cccc2c1` (single isomer, unassigned) [14 (isomer 2), 5-(2-phenylmorpholino)-N-(1,2,4-thiadiazol-5-yl)naphthalene-2-sulfonamide], the pIC50 on Nav 1.7 [1] (setting [3]) was 5.74; on Nav 1.5 (setting [4]), less than 4.52.
For `O=S(=O)(Nc1ncns1)c1ccc2c(-c3ccc(C(F)(F)F)cc3-c3ccncc3)cccc2c1` [Example 2], in that order: 7.52 and less than 4.52.
The like results for `O=S(=O)(Nc1ncns1)c1ccc2c(-c3ccc(F)cc3Br)cccc2c1` [Example 3] were, in that order, 7.05 and 4.62.
For `O=S(=O)(Nc1ncns1)c1ccc2c(-c3ccc(OC(F)(F)F)cc3Cl)cccc2c1` [Example 4], in that order: 6.05 and 4.96.
With `O=S(=O)(Nc1ncns1)c1ccc2c(-c3ccc(F)cc3Cl)cccc2c1` [Example 5], the pIC50 on Nav 1.7 [1] (setting [3]) is 6.77; at Nav 1.5 (setting [4]), 4.62.
The like results for `O=S(=O)(Nc1ncns1)c1ccc2c(-c3ccccc3Cl)cccc2c1` [Example 8] were, in that order, 6.70 and 4.67.
The like results for `O=S(=O)(Nc1ncns1)c1ccc2c(-c3ccccc3)cccc2c1` [Example 9] were, in that order, 6.34 and 4.62.
The like results for `CCOc1cc(C(F)(F)F)ccc1-c1cccc2cc(S(=O)(=O)Nc3ncns3)ccc12` [Example 10] were, in that order, 7.30 and 5.18.
On to `Cc1cc(C(F)(F)F)ccc1-c1cccc2cc(S(=O)(=O)Nc3ncns3)ccc12` [Example 11], for which the pIC50 was 7.10 on Nav 1.7 [1] (setting [3]) and 5.29 on Nav 1.5 (setting [4]).
Take `COc1cc(C(F)(F)F)ccc1-c1cccc2cc(S(=O)(=O)Nc3ncns3)ccc12` [Example 12]: the figures for the negative-log IC50 (pIC50) at Nav 1.7 [1] (setting [3]) and at Nav 1.5 (setting [4]) were 8.00 and 4.94, respectively.
For `N#Cc1cc(C(F)(F)F)ccc1-c1cccc2cc(S(=O)(=O)Nc3ncns3)ccc12` [Example 22], in that order: 7.40 and less than 4.52.
With `O=S(=O)(Nc1ncns1)c1ccc2c(-c3ccc(C(F)(F)F)cc3Br)cccc2c1` [Example 23], the results for the negative logarithm of the IC50 (pIC50) on Nav 1.7 [1] (setting [3]) and at Nav 1.5 (setting [4]) were 6.96 and 4.68, respectively.
For `Cn1nccc1-c1cc(Cl)ccc1-c1cccc2cc(S(=O)(=O)Nc3ncns3)ccc12` [Example 25], in that order: 7.30 and less than 4.52.
Consider `O=S(=O)(Nc1ncns1)c1ccc2c(-c3ccc(Cl)cc3C3=CCNCC3)cccc2c1` [Example 26], for which the figures for the negative logarithm of the IC50 (pIC50) at Nav 1.7 [1] (setting [3]) and on Nav 1.5 were 7.70 and less than 4.52, respectively.
Regarding `O=S(=O)(Nc1ncns1)c1ccc2c(-c3ccc(Cl)cc3-c3cn[nH]c3)cccc2c1` [Example 27, 5-(4-CHLORO-2-(1H-PYRAZOL-4-YL)PHENYL)-N-(1,2,4-THIADIAZOL-5-YL)NAPHTHALENE-2 SULFONAMIDE], the values for the pIC50 at Nav 1.7 [1] (setting [3]) and at Nav 1.5 (setting [4]) were 7.70 and less than 4.52, respectively.
The like results for `O=S(=O)(Nc1ncns1)c1ccc2c(-c3ccc(Cl)cc3-c3ccncc3)cccc2c1` [Example 28] were, in that order, 7.30 and less than 4.52.
The like results for `O=S(=O)(Nc1ncns1)c1ccc2c(-c3ccc(C(F)(F)F)cc3Cl)cccc2c1` [Example 29] were, in that order, 7.30 and less than 4.52.
For `NC(=O)c1cc(C(F)(F)F)ccc1-c1cccc2cc(S(=O)(=O)Nc3ncns3)ccc12` [Example 32], the pIC50 on Nav 1.7 [1] (setting [3]) was 6.77; at Nav 1.5 (setting [4]), less than 4.52.
For `O=S(=O)(Nc1ncns1)c1ccc2c(-c3ccc(Cl)cc3C(F)(F)F)cccc2c1` [Example 39], in that order: 5.81 and 5.11.
Turning to `O=S(=O)(Nc1ncns1)c1ccc2c(-c3ccc(Cl)cc3Cl)cccc2c1` [Example 40], the pIC50 is 5.71 at Nav 1.7 [1] (setting [3]) and less than 4.52 at Nav 1.5 (setting [4]).
The like results for `Cn1nccc1-c1cc(C(F)(F)F)ccc1-c1cccc2cc(S(=O)(=O)Nc3nccs3)ccc12` [Example 47] were, in that order, 6.57 and 5.24.
Take `O=S(=O)(Nc1ncns1)c1ccc2c(-c3ccc(C(F)(F)F)cc3Br)nccc2c1` [Example 50, 1-(2-BROMO-4-(TRIFLUOROMETHYL)PHENYL)-N-(1,2,4-THIADIAZOL-5-YL)ISOQUINOLINE-6-SULFONAMIDE]: the negative-log IC50 (pIC50) is 7.52 on Nav 1.7 [1] (setting [3]) and less than 4.52 on Nav 1.5 (setting [4]).
The like results for `O=S(=O)(Nc1nccs1)c1ccc2c(-c3ccc(C(F)(F)F)cc3Cl)nccc2c1` [Example 51, 1-(2-CHLORO-4-(TRIFLUOROMETHYL)PHENYL)-N-(THIAZOL-2-YL)ISOQUINOLINE-6-SULFONAMIDE] were, in that order, 6.96 and less than 4.52.
The like results for `O=S(=O)(Nc1ncns1)c1ccc2c(-c3ccc(C(F)(F)F)cc3-c3ccncc3)nccc2c1` [Example 53, 1-(2-(PYRIDIN-4-YL)-4-(TRIFLUOROMETHYL)PHENYL)-N-(1,2,4-THIADIAZOL-5-YL)ISOQUINOLINE-6-SULFONAMIDE] were, in that order, 7.15 and less than 4.52.
The like results for `Cn1nccc1-c1cc(C(F)(F)F)ccc1-c1nccc2cc(S(=O)(=O)Nc3ncns3)ccc12` [Example 54, 1-(2-(1-METHYL-1H-PYRAZOL-5-YL)-4-(TRIFLUOROMETHYL)PHENYL)-N-(1,2,4-THIADIAZOL-5-YL)ISOQUINOLINE-6-SULFONAMIDE] were, in that order, 7.40 and less than 4.52.
In the case of `O=S(=O)(Nc1ncns1)c1ccc2c(-c3ccc(C(F)(F)F)cc3-c3cn[nH]c3)nccc2c1` [Example 55, 1-(2-(1H-PYRAZOL-4-YL)-4-(TRIFLUOROMETHYL)PHENYL)-N-(1,2,4-THIADIAZOL-5-YL)ISOQUINOLINE-6-SULFONAMIDE], the pIC50 at Nav 1.7 [1] (setting [3]) was 8.00; on Nav 1.5 (setting [4]), less than 4.52.
As for `COc1cc(C(F)(F)F)ccc1-c1nccc2cc(S(=O)(=O)Nc3ncns3)ccc12` [Example 195, 1-(2-METHOXY-4-(TRIFLUOROMETHYL)PHENYL)-N-(1,2,4-THIADIAZOL-5-YL)ISOQUINOLINE-6-SULFONAMIDE], the pIC50 at Nav 1.7 [1] (setting [5]) was 8.00; at Nav 1.7 [2], 6.87; at Nav 1.5 (setting [6]), less than 4.52.
The like results for `COc1cc(-c2cccc(F)c2)ccc1-c1nccc2cc(S(=O)(=O)Nc3ccncn3)ccc12` [Example 199, 1-(3′-FLUORO-3-METHOXY-[1,1′-BIPHENYL]-4-YL)-N-(PYRIMIDIN-4-YL)ISOQUINOLINE-6-SULFONAMIDE 2,2,2-TRIFLUOROACETATE] were, in that order, 7.70, 6.81 and less than 4.52.
Consider `COc1cc(C(F)(F)F)ccc1-c1ncnc2cc(S(=O)(=O)Nc3nccs3)ccc12` [Example 261, 4-(2-methoxy-4-(trifluoromethyl)phenyl)-N-(thiazol-2-yl)quinazoline-7-sulfonamide], for which the pIC50 is 8.00 on Nav 1.7 [1] (setting [5]), 6.70 at Nav 1.7 [2] and less than 4.52 on Nav 1.5 (setting [6]).
For `COc1cc(Cl)ccc1-c1ncnc2cc(S(=O)(=O)Nc3ncns3)ccc12` [Example 524, 4-(4-CHLORO-2-METHOXYPHENYL)-N-(1,2,4-THIADIAZOL-5-YL)QUINAZOLINE-7-SULFONAMIDE], the pIC50 is 7.00 at Nav 1.7 [2] and less than 4.52 at Nav 1.5 (setting [6]).
For `COc1cc(-c2cccc(F)c2)ccc1-c1ncnc2cc(S(=O)(=O)Nc3ncns3)ccc12` [Example 525, 4-(3′-FLUORO-3-METHOXY-[1,1′-BIPHENYL]-4-YL)-N-(1,2,4-THIADIAZOL-5-YL)QUINAZOLINE-7-SULFONAMIDE], in that order: 7.24 and less than 4.52.
With `COc1cc(-c2cccc(F)c2)ccc1-c1ncnc2cc(S(=O)(=O)Nc3ccncn3)ccc12` [Example 527, 4-(3′-FLUORO-3-METHOXY-[1,1′-BIPHENYL]-4-YL)-N-(PYRIMIDIN-4-YL)QUINAZOLINE-7-SULFONAMIDE], the results for the pIC50 on Nav 1.7 [2] and on Nav 1.5 (setting [6]) were 6.60 and less than 4.52, respectively.
The like results for `COc1cc(-c2cccc(C(F)(F)F)c2)ccc1-c1ncnc2cc(S(=O)(=O)Nc3ccncn3)ccc12` [Example 528, 4-(3-METHOXY-3′-(TRIFLUOROMETHYL)-[1,1′-BIPHENYL]-4-YL)-N-(PYRIMIDIN-4-YL)QUINAZOLINE-7-SULFONAMIDE] were, in that order, 7.24 and less than 4.52.
For `COc1cc(-c2cccc(F)c2)ccc1-c1ncnc2cc(S(=O)(=O)Nc3nncs3)ccc12` [Example 529, 4-(3′-FLUORO-3-METHOXY-[1,1′-BIPHENYL]-4-YL)-N-(1,3,4-THIADIAZOL-2-YL)QUINAZOLINE-7-SULFONAMIDE], in that order: 6.59 and less than 4.52.
Take `COc1cc(-c2ccc(F)c(F)c2)ccc1-c1ncnc2cc(S(=O)(=O)Nc3nncs3)ccc12` [Example 530, 4-(3′,4′-DIFLUORO-3-METHOXY-[1,1′-BIPHENYL]-4-YL)-N-(1,3,4-THIADIAZOL-2-YL)QUINAZOLINE-7-SULFONAMIDE]: the negative-log IC50 (pIC50) at Nav 1.7 [2] was 6.63; at Nav 1.5 (setting [6]) it was less than 4.52.
The like results for `COc1cc(-c2cc(F)cc(F)c2)ccc1-c1ncnc2cc(S(=O)(=O)Nc3nncs3)ccc12` [Example 531, 4-(3′,5′-DIFLUORO-3-METHOXY-[1,1′-BIPHENYL]-4-YL)-N-(1,3,4-THIADIAZOL-2-YL)QUINAZOLINE-7-SULFONAMIDE] were, in that order, 6.64 and less than 4.52.
For `Cc1cc(Cl)ccc1-c1ncnc2cc(S(=O)(=O)Nc3ncns3)ccc12` [Example 532], in that order: 6.00 and less than 4.52.
